Measurements from the NIST ThermoML archive (doi:10.1016/j.jct.2011.12.035).
± gives the expanded uncertainty stated by the source.

Test: xn = mol fraction of the nth substance listed
Settings: Gas, Buoyancy - hydrostatic balance with magnetic suspension - one sinker

N#N [nitrogen] + O=C=O
Settings | mass density [kg/m3]
324.98 K, 10004 kPa, x2 = 0.501 | 153.908 ± 0.37
324.98 K, 11001 kPa, x2 = 0.501 | 171.162 ± 0.41
324.98 K, 12005 kPa, x2 = 0.501 | 188.662 ± 0.46
324.98 K, 13008 kPa, x2 = 0.501 | 206.25 ± 0.5
324.98 K, 14011 kPa, x2 = 0.501 | 223.826 ± 0.54
324.98 K, 14991 kPa, x2 = 0.501 | 240.922 ± 0.58
324.98 K, 16018 kPa, x2 = 0.501 | 258.66 ± 0.63
324.98 K, 17012 kPa, x2 = 0.501 | 275.602 ± 0.67
324.98 K, 18018 kPa, x2 = 0.501 | 292.404 ± 0.71
324.98 K, 19023 kPa, x2 = 0.501 | 308.813 ± 0.75
324.98 K, 19436 kPa, x2 = 0.501 | 315.426 ± 0.76
349.95 K, 1995.5 kPa, x2 = 0.2 | 21.523 ± 0.052
349.95 K, 3995.9 kPa, x2 = 0.2 | 43.283 ± 0.1
349.95 K, 5996.5 kPa, x2 = 0.2 | 65.117 ± 0.16
349.95 K, 7996.2 kPa, x2 = 0.2 | 86.91 ± 0.21
349.95 K, 9978.8 kPa, x2 = 0.2 | 108.381 ± 0.26
349.95 K, 11996 kPa, x2 = 0.2 | 129.976 ± 0.32
349.95 K, 13995 kPa, x2 = 0.2 | 151.019 ± 0.37
349.95 K, 15999 kPa, x2 = 0.2 | 171.67 ± 0.42
349.95 K, 17993 kPa, x2 = 0.2 | 191.695 ± 0.46
349.95 K, 19820 kPa, x2 = 0.2 | 209.531 ± 0.51
349.96 K, 983.48 kPa, x2 = 0.501 | 12.303 ± 0.035
349.96 K, 1988.3 kPa, x2 = 0.501 | 25.152 ± 0.061
349.96 K, 2996.4 kPa, x2 = 0.501 | 38.326 ± 0.094
349.96 K, 3997 kPa, x2 = 0.501 | 51.667 ± 0.12
349.96 K, 4995.9 kPa, x2 = 0.501 | 65.24 ± 0.16
349.96 K, 5996.2 kPa, x2 = 0.501 | 79.074 ± 0.19
349.96 K, 6995.9 kPa, x2 = 0.501 | 93.129 ± 0.23
349.96 K, 7995.5 kPa, x2 = 0.501 | 107.379 ± 0.26
349.96 K, 8996.2 kPa, x2 = 0.501 | 121.83 ± 0.29
349.96 K, 9996.3 kPa, x2 = 0.501 | 136.421 ± 0.33
349.96 K, 10998 kPa, x2 = 0.501 | 151.155 ± 0.37
349.96 K, 11997 kPa, x2 = 0.501 | 165.911 ± 0.4
349.96 K, 12998 kPa, x2 = 0.501 | 180.741 ± 0.44
349.96 K, 14000 kPa, x2 = 0.501 | 195.573 ± 0.47
349.96 K, 14998 kPa, x2 = 0.501 | 210.29 ± 0.51
349.96 K, 15995 kPa, x2 = 0.501 | 224.908 ± 0.55
349.96 K, 16996 kPa, x2 = 0.501 | 239.453 ± 0.58
349.96 K, 17996 kPa, x2 = 0.501 | 253.79 ± 0.61
349.96 K, 18997 kPa, x2 = 0.501 | 267.945 ± 0.65
349.96 K, 19977 kPa, x2 = 0.501 | 281.556 ± 0.68
374.94 K, 981.92 kPa, x2 = 0.2 | 9.845 ± 0.024
374.94 K, 1992.4 kPa, x2 = 0.2 | 19.995 ± 0.049
374.94 K, 3995.7 kPa, x2 = 0.2 | 40.155 ± 0.097
374.94 K, 5995.1 kPa, x2 = 0.2 | 60.236 ± 0.15
374.94 K, 7995.3 kPa, x2 = 0.2 | 80.217 ± 0.19
374.94 K, 9993 kPa, x2 = 0.2 | 99.987 ± 0.24
374.94 K, 11990 kPa, x2 = 0.2 | 119.489 ± 0.29
374.94 K, 13988 kPa, x2 = 0.2 | 138.676 ± 0.34
374.94 K, 16023 kPa, x2 = 0.2 | 157.817 ± 0.38
374.94 K, 17847 kPa, x2 = 0.2 | 174.574 ± 0.42
374.94 K, 19903 kPa, x2 = 0.2 | 192.989 ± 0.47
374.95 K, 987.06 kPa, x2 = 0.501 | 11.492 ± 0.028
374.95 K, 1987.8 kPa, x2 = 0.501 | 23.329 ± 0.057
374.95 K, 2995.7 kPa, x2 = 0.501 | 35.439 ± 0.088
374.95 K, 3994.8 kPa, x2 = 0.501 | 47.603 ± 0.12
374.95 K, 4993.3 kPa, x2 = 0.501 | 59.918 ± 0.15
374.95 K, 5994.6 kPa, x2 = 0.501 | 72.415 ± 0.18
374.95 K, 6995 kPa, x2 = 0.501 | 85.031 ± 0.21
374.95 K, 8053.6 kPa, x2 = 0.501 | 98.499 ± 0.24
374.95 K, 8965.3 kPa, x2 = 0.501 | 110.186 ± 0.27
374.95 K, 9995.9 kPa, x2 = 0.501 | 123.471 ± 0.3
374.95 K, 10995 kPa, x2 = 0.501 | 136.416 ± 0.33
374.95 K, 11992 kPa, x2 = 0.501 | 149.335 ± 0.36
374.95 K, 12992 kPa, x2 = 0.501 | 162.294 ± 0.39
374.95 K, 13995 kPa, x2 = 0.501 | 175.285 ± 0.42
374.95 K, 14994 kPa, x2 = 0.501 | 188.172 ± 0.46
374.95 K, 15990 kPa, x2 = 0.501 | 200.942 ± 0.49
374.95 K, 16990 kPa, x2 = 0.501 | 213.677 ± 0.52
374.95 K, 17988 kPa, x2 = 0.501 | 226.253 ± 0.55
374.95 K, 19119 kPa, x2 = 0.501 | 240.354 ± 0.58
374.95 K, 19941 kPa, x2 = 0.501 | 250.44 ± 0.61
400.01 K, 996.68 kPa, x2 = 0.2 | 9.356 ± 0.023
400.01 K, 1978.2 kPa, x2 = 0.2 | 18.57 ± 0.045
400.01 K, 3994 kPa, x2 = 0.2 | 37.452 ± 0.091
400.01 K, 5994.7 kPa, x2 = 0.2 | 56.097 ± 0.14
400.01 K, 7993.8 kPa, x2 = 0.2 | 74.576 ± 0.18
400.01 K, 9990.6 kPa, x2 = 0.2 | 92.826 ± 0.23
400.01 K, 11990 kPa, x2 = 0.2 | 110.835 ± 0.27
400.01 K, 13987 kPa, x2 = 0.2 | 128.512 ± 0.31
400.01 K, 15981 kPa, x2 = 0.2 | 145.821 ± 0.35
400.01 K, 17979 kPa, x2 = 0.2 | 162.772 ± 0.39
400.01 K, 19979 kPa, x2 = 0.2 | 179.326 ± 0.43
400.02 K, 975.89 kPa, x2 = 0.501 | 10.626 ± 0.026
400.02 K, 1987.6 kPa, x2 = 0.501 | 21.767 ± 0.053
400.02 K, 2995.6 kPa, x2 = 0.501 | 32.992 ± 0.083
400.02 K, 3980.9 kPa, x2 = 0.501 | 44.058 ± 0.11
400.02 K, 4993.2 kPa, x2 = 0.501 | 55.527 ± 0.14
400.02 K, 5994.2 kPa, x2 = 0.501 | 66.95 ± 0.16
400.02 K, 6991.4 kPa, x2 = 0.501 | 78.405 ± 0.19
400.02 K, 7992.4 kPa, x2 = 0.501 | 89.956 ± 0.22
400.02 K, 8994.6 kPa, x2 = 0.501 | 101.571 ± 0.25
400.02 K, 9979.8 kPa, x2 = 0.501 | 113.018 ± 0.27
400.02 K, 10987 kPa, x2 = 0.501 | 124.751 ± 0.3
400.02 K, 11986 kPa, x2 = 0.501 | 136.359 ± 0.33
400.02 K, 12984 kPa, x2 = 0.501 | 147.944 ± 0.36
400.02 K, 13986 kPa, x2 = 0.501 | 159.545 ± 0.39
400.02 K, 14984 kPa, x2 = 0.501 | 171.05 ± 0.41
400.02 K, 15985 kPa, x2 = 0.501 | 182.526 ± 0.44
400.02 K, 16984 kPa, x2 = 0.501 | 193.894 ± 0.47
400.02 K, 17965 kPa, x2 = 0.501 | 204.97 ± 0.5
400.02 K, 18983 kPa, x2 = 0.501 | 216.347 ± 0.52
400.02 K, 19960 kPa, x2 = 0.501 | 227.147 ± 0.55
